Results on 11 molecules are retold here after ChEMBL document CHEMBL1150849, “Antiprotozoal activity of the constituents of Conyza filaginoides” (J Nat Prod, 2001).

Test [1] deals with Entamoeba histolytica. Put plainly: Antiprotozoal activity against Entamoeba histolytica HM-1:IMSS trophozoites after 48 hrs by MTT/PMS assay. It counts as functional, organism-based.
For test [2], the system named is Giardia intestinalis. Put plainly: Antiprotozoal activity against Giardia lamblia IMSS:0989:1 after 48 hrs by MTT/PMS assay. It counts as functional, organism-based. The following applies: Giardia duodenalis, IMSS:0989:1, 48 h.

In brackets after ≈: the same amount, converted by molar mass.

For `COc1cc(-c2oc3cc(O)cc(O)c3c(=O)c2O[C@@H]2O[C@H](COC(=O)/C=C/c3ccc(O)c(O)c3)[C@H](O)[C@H](O)[C@H]2O)ccc1O`, the IC50 (commonly the concentration needed to halve the response being measured) in test [1] was found to be 47.7 µg/mL (≈ 74.5 µM); in test [2], 15.3 µg/mL (≈ 23.9 µM).

Regarding `CC[C@H]1CN2CCc3cc(OC)c(OC)cc3[C@@H]2C[C@@H]1C[C@H]1NCCc2cc(OC)c(OC)cc21` [EMETINE], the IC50 in test [1] is 1.05 µg/mL (≈ 2.18 µM); in test [2] it was 0.41 µg/mL (≈ 0.853 µM).

Consider `O=C(/C=C/c1ccc(O)c(O)c1)OC[C@H]1O[C@@H](Oc2c(-c3ccc(O)cc3)oc3cc(O)cc(O)c3c2=O)[C@H](O)[C@@H](O)[C@H]1O`, for which the values for the IC50 in test [1] and in test [2] were 30 µg/mL (≈ 49.1 µM) and 47 µg/mL (≈ 77 µM), respectively.

Turning to `COc1cc(-c2oc3cc(O)cc(O)c3c(=O)c2O[C@@H]2O[C@H](CO[C@@H]3O[C@@H](C)[C@H](O)[C@@H](O)[C@H]3O)[C@@H](O)[C@H](O)[C@H]2O)ccc1O` [NARCISSIN], the IC50 in test [1] came out at 17.2 µg/mL (≈ 27.5 µM); in test [2], 94.7 µg/mL (≈ 152 µM).

Take `C[C@@H]1O[C@@H](OC[C@H]2O[C@@H](Oc3c(-c4ccc(O)c(O)c4)oc4cc(O)cc(O)c4c3=O)[C@H](O)[C@@H](O)[C@@H]2O)[C@H](O)[C@H](O)[C@H]1O` [RUTIN]: the results for the IC50 in test [1] and in test [2] were 120 µg/mL (≈ 196 µM) and 179 µg/mL (≈ 293 µM), respectively.

In the case of `C[C@@H]1O[C@@H](OC[C@H]2O[C@@H](Oc3c(-c4ccc(O)cc4)oc4cc(O)cc(O)c4c3=O)[C@H](O)[C@@H](O)[C@@H]2O)[C@H](O)[C@H](O)[C@H]1O` [NICOTIFLOROSIDE], the values for the IC50 in test [1] and in test [2] were 30.9 µg/mL (≈ 52 µM) and 22.5 µg/mL (≈ 37.8 µM), respectively.

Turning to `O=c1c(O[C@@H]2O[C@H](CO)[C@@H](O)[C@H](O)[C@H]2O)c(-c2ccc(O)c(O)c2)oc2cc(O)cc(O)c12` [ISOQUERCETIN], the IC50 in test [1] amounted to 14.7 µg/mL (≈ 31.7 µM); in test [2], 87.3 µg/mL (≈ 188 µM).

With `CC1(C)CC[C@]2(CO)CC[C@]3(C)C(=CC[C@@H]4[C@@]5(C)CC[C@H](O)C(C)(C)[C@@H]5CC[C@]43C)[C@@H]2C1` [ERYTHRODIOL], the IC50 in test [1] came out at 12.7 µg/mL (≈ 28.7 µM); in test [2], 29.9 µg/mL (≈ 67.5 µM).

As for `O=C(/C=C/c1ccc(O)c(O)c1)OC[C@H]1O[C@@H](Oc2c(-c3ccc(O)c(O)c3)oc3cc(O)cc(O)c3c2=O)[C@H](O)[C@@H](O)[C@@H]1O`, the figures for the IC50 in test [1] and in test [2] were 14 µg/mL (≈ 22.3 µM) and 105 µg/mL (≈ 167 µM), respectively.

Take `C=C1CC[C@H]2O[C@@]2(C)CC[C@@H]2[C@@H]1CC2(C)C`: the results for the IC50 in test [1] and in test [2] were 71.3 µg/mL (≈ 324 µM) and 53.8 µg/mL (≈ 244 µM), respectively.

For `O=c1c(O[C@@H]2O[C@H](CO)[C@@H](O)[C@H](O)[C@H]2O)c(-c2ccc(O)cc2)oc2cc(O)cc(O)c12` [ASTRAGALIN], the IC50 in test [1] is 61.2 µg/mL (≈ 136 µM); in test [2], 47.5 µg/mL (≈ 106 µM).
